These results are taken from patent US5484804A, “Perhydroisoindole derivatives as antagonists of substance P” (Rhone-Poulenc Rorer S.A., priority 1992, dated 1996).

Holding throughout (assay type): in vivo
Experiment [1] relates to increase in capillary permeability caused by septide (agonist of substance P). Briefly: inhibition of the increase in capillary permeability caused by septide. Conditions: Cavia porcellus, guinea-pig. The source says: The study of some isoindole derivatives of the general formula (I) by the technique of A. Saria et al., Arch.
The subject of another experiment is formalin pain. Briefly: formalin pain test. The following applies: Cavia porcellus, po; guinea-pig, administered perorally 1 hour before the test.
Experiment [2] relates to hypotension induced by substance P. Put plainly: antagonism of hypotension induced by substance P. The following applies: Cavia porcellus, iv; guinea-pig, hypotension induced by i.v. injection of 250 ng/kg of substance P; read-out: ED50, dose which reduces by 50% the hypotension. The procedure:
Injection of substance P in animals causes hypotension. The products studied by the technique of C. A. Maggi et al., J. Auton. […] The ED50, the dose which reduces by 50% the hypotension induced by an i.v. injection of 250 ng/kg of substance P, is determined.

For experiment [3], the system named is bronchospasm induced by [Pro^9 ] substance P. Briefly: inhibition of bronchospasm induced by [Pro9] substance P. The following applies: Cavia porcellus, iv; guinea-pig, bronchospasm induced by 3 μg/kg i.v. of [Pro9] substance P; read-out: ED50, dose which reduces by 50% the bronchospasm. From the text:
Injection of substance P causes a bronchospasm in the animal. The bronchoconstriction induced in vivo in the guinea-pig by injection of substance P or a selective agonist of substance P:. [Pro^9 ] substance P, is studied by the technique of H. Konzett and R. Rosseler, Archiv. Exp. Path. Pharmak., 195, 71-74 (1940). This bronchoconstriction is inhibited by injection of a product according to the invention, which is evidence of an antiasthmatic activity. The ED50, the dose which reduces by 50% the bronchospasm induced by 3 μg/kg i.v. of [Pro^9 ] substance P, is determined. In this technique, the ED50 of the product of Example 1 is 0.7 mg/kg i.v.

`COc1ccccc1[C@H](C)C(=O)N1C[C@@H]2[C@H](C1)C(c1ccccc1)(c1ccccc1)CC[C@@]2(O)c1ccccc1OC` [Example 1, (3aS,4S,7aS)-7,7-diphenyl-4-(2-methoxyphenyl)-2-[(S)-2-(2methoxyphenyl)propionyl]perhydroisoindol-4-ol]: the 50% effective dose (ED50) – broadly, the dose that gives a 50% effect, or the effect in half of the subjects – is 0.04 mg/kg in experiment [1] (iv); 3.5 mg/kg in experiment [1] (po); 11 mg/kg with formalin pain; 0.15 mg/kg in experiment [2]; 0.7 mg/kg in experiment [3].
